2 molecules from patent US12357615B2, “Compositions for the treatment of brain tumors” (Kembi Therapeutics Pty Ltd, priority 2018, dated 2025) can be followed below.

One may read the GI50 as the concentration at which growth is held to half of that of the control.

The test system of assay [1] is T98G xenograft. The note with it: implanted DHT pellets versus no DHT, female C.B-17 SCID mice. As for the experimental part: T98G cancer cells were implanted into the flanks female C.B-17 SCID mice with or without implanted DHT pellets. Tumor size was measured over time. The results were plotted using Graphpad Prism.
Assay [2] concerns AM38 AR negative glioblastoma multiforme cell line. Briefly: GBM tumor cell line inhibition assay (colony formation), AM38. The note with it: AM38, AR negative GBM cells. The assay is classed as cell-based. As for the experimental part:
(§1) The term “percent colony formation” as used herein is the number of colonies after treatment with seviteronel and normalized to the number of colonies formed in the absence of seviteronel.
(§2) AR positive and AR negative GBM cells were plated at clonal density and 1-2 days later were treated with the test compounds at the indicated concentrations. After 10-12 days, the plates were stained with crystal violet. The number of colonies were then counted and normalized to the number of colonies formed in the absence of the test compounds. The results were plotted using Graphpad Prism.

For assay [3], the system named is T98G AR positive glioblastoma multiforme cell line. Briefly: GBM tumor cell line inhibition assay (colony formation), T98G. The note with it: Homo sapiens; T98 (T98G), AR positive GBM cells, 10-12 days; read-out: GI50 (growth inhibition, colony formation). In kind it is cell-based. The protocol:
as §1, §2

Assay [4] has as its system 8MGBA AR negative glioblastoma multiforme cell line. Briefly: GBM tumor cell line inhibition assay (colony formation), 8MGBA. The assay is classed as cell-based. The following applies: AR negative GBM cells. As for the experimental part: as §1, §2
Assay [5] has as its system AM38 AR negative cell line. Briefly: Clonogenic survival after radiation with seviteronel, AM38. The assay is classed as cell-based. The note with it: seviteronel 2.5-5 uM 24 hours before radiation 0-8 Gy. From the text:
(§3) The term “surviving fraction” as used herein is the fraction of cells that retain their reproductive integrity after radiation normalized to the fraction of cells seeded and the colonies formed in the absence of irradiation
(§4) The term “enhancement ratio” as used herein is the ratio of the Dmid (the area under the radiation survival curve, which reflects the effectiveness of radiation) in the absence of seviteronel divided by the Dmid in the presence of seviteronel.
(§5) AR positive or negative GBM cell lines were treated with seviteronel (2.5-5 uM) for 24 hours prior to treatment with a single fraction of ionizing radiation (0-8 Gy) and then replated at clonal density. After 10-14 days, cells were stained with crystal violet and colonies were counted and normalized to conditions without radiation. Enhancement ratios were calculated by dividing the Dmid (the area under the clonogenic-survival curve) of control conditions by the Dmid of the seviteronel-treated cells.

In assay [6] the test system is T98G xenograft. Briefly: Mouse T98G xenograft model, seviteronel and radiation therapy. In kind it is in vivo. As for the experimental part: T98G cancer cells were implanted into the flanks of DHT-bearing female C.B-17 SCID mice. After tumors reached approximately 100 mm3 in size, tumors were randomized into control, seviteronel alone (75 mg/kg for 30 days), radiation alone (2 Gy×6 fractions), or combined radiation and seviteronel treatment groups. Tumor size was measured over time and time to tumor doubling was estimated using the Kaplan-Meyer method. The results were plotted using Graphpad Prism.

Assay [7] concerns T98G AR positive cell line. Briefly: Clonogenic survival after radiation with seviteronel, T98G. In kind it is cell-based. The following applies: 5 μM seviteronel 24 hours before radiation 0-8 Gy.
From the text: as §3, §4, §5

For assay [8], the system named is 8MGBA AR negative cell line. Briefly: Clonogenic survival after radiation with seviteronel, 8MGBA. The following applies: seviteronel 2.5-5 uM 24 hours before radiation 0-8 Gy. The assay is classed as cell-based.
From the text: as §3, §4, §5

Assay [9] has as its system LN18 AR positive cell line. Briefly: Clonogenic survival after radiation with seviteronel, LN18. The assay is classed as cell-based. The following applies: 2.5 μM seviteronel 24 hours before radiation 0-8 Gy.
From the text: as §3, §4, §5

Consider `C[C@]12CCC(=O)C[C@@H]1CC[C@@H]1[C@@H]2CC[C@]2(C)[C@@H](O)CC[C@@H]12` [DHT, Dihydrotestosterone], for which, in the assay on T98G xenograft [1], the “tumor volume over time” value is listed as “increased more rapidly”.

For `CC(C)[C@](O)(c1ccc2cc(OC(F)F)c(OC(F)F)cc2c1)c1c[nH]nn1` [seviteronel], the effect on growth result in [2] and in assay [4] was “little to no effect” each time. The GI50 in assay [3] was 4 µM. In addition, the “enhancement ratio (Dmid without / with seviteronel)” value in assay [5] was 1.03; in [7] it was 1.32; in assay [8], 1.0; in [9], 1.5. The “tumor volume increase over 35 days” value in the assay with T98G xenograft [6] (seviteronel 75 mg/kg days 1-30 plus radiation therapy 2 Gy x 6 fractions days 2-7) is “approximately 50%”; in the assay with T98G xenograft [6] (seviteronel alone, 75 mg/kg for 30 days, untreated approximately 5 fold), 2-3 fold. The “mice with doubling in tumor volume after 30 days” value in the assay on T98G xenograft [6] (seviteronel 75 mg/kg plus radiation therapy 2 Gy x 6 fractions) is listed as “none”. Also, the “time to tumor doubling” value in the assay on T98G xenograft [6] (seviteronel alone, 75 mg/kg for 30 days, untreated within 15 days) was at most 30 days.
